Measurements from patent US11629171B2, “Beta-hairpin peptidomimetics” (POLYPHOR AG, priority 2017, dated 2023).
In brackets after ≈: the same amount, converted by molar mass. Where a SMILES comes first, the peptide text is derived from it. Bridges are numbered along the chain shown (N, C = ends). Roman numbers before positions name the chains, in order. [ ]: non-standard residue; d: D form. dDab = NCC[C@@H](N)C(=O)O; Nle = CCCC[C@H](N)C(=O)O; Dab = NCC[C@H](N)C(=O)O; Dap = NC[C@H](N)C(=O)O

What was measured:
Assay type in all cases: cell-based
[1] = system: human red blood cells (hRBC); assay: Hemolysis; conditions: red cells of human, 1 h, 200
Procedure, shortened: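 Washed fresh human RBC (20% v/v) incubated with peptide at 200 μg/mL for 1 h at 37° C with shaking. Supernatant OD540 measured after dilution, blank corrected; percent hemolysis = OD540 peptide / OD540 of 2% Triton X-100 lysis × 100, PBS with 10% water as 0%.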

[2] = system: Escherichia coli ATCC 25922; conditions: ATCC 25922
Procedure, shortened: (§1)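 Cation-adjusted MH-II broth, 0.002% polysorbate 80, inoculum near 10^6 CFU/mL. MIC read visually after 18-20 h, 35° C; units μg/mL.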

[3] = system: Enterobacter cloacae 848840; conditions: 848840
Procedure, shortened: as §1

[4] = system: Acinetobacter baumannii DSM 30008; conditions: DSM 30008
Procedure, shortened: as §1

[5] = system: Acinetobacter baumannii 872842; conditions: 872842
Procedure, shortened: as §1

[6] = system: Klebsiella pneumoniae 968733; conditions: 968733
Procedure, shortened: as §1

Escherichia coli 926415 = conditions: 926415
Procedure, shortened: as §1

[7] = system: Klebsiella pneumoniae SSI #3010; conditions: SSI #3010
Procedure, shortened: as §1

[8] = system: Pseudomonas aeruginosa ATCC 27853; conditions: ATCC 27853
Procedure, shortened: as §1

Row | Compound | Hemolysis at 200 μg/mL [1] [%] | Escherichia coli ATCC 25922 MIC [2] [µg/mL] | MIC [3] [µg/mL] | Acinetobacter baumannii DSM 30008 MIC [4] [µg/mL] | MIC [5] [µg/mL] | MIC [6] [µg/mL] | MIC (Escherichia coli 926415) [µg/mL] | Klebsiella pneumoniae SSI #3010 MIC [7] [µg/mL] | Pseudomonas aeruginosa ATCC 27853 MIC [8] [µg/mL]
1 | CC[C@H](C)[C@@H]1NC(=O)[C@H](CO)NC(=O)[C@H](Cc2c[nH]c3ccccc23)NC(=O)[C@H](CO)NC(=O)[C@@H](CCN)NC(=O)[C@H](CCC(=O)N[C@@H](CCN)C(=O)N[C@H](C(=O)N[C@@H](CN)C(=O)N[C@H]2CCNC(=O)[C@H]([C@@H](C)O)NC(=O)[C@H](CCN)NC(=O)[C@H](CCN)NC(=O)[C@H](CC(C)C)NC(=O)[C@@H](CC(C)C)NC(=O)[C@H](CCN)NC2=O)[C@@H](C)O)NC(=O)[C@H](CCN)NC(=O)[C@H](Cc2ccc(O)cc2)NC(=O)[C@@H](NC(=O)[C@@H](NC(C)=O)C(C)C)CCNC(=O)CC[C@@H](C(=O)N[C@@H](CO)C(N)=O)NC1=O [Ex. 324] (I: Ac-V[Dab]Y[Dab]E[dDab]SWSIES-NH2 / II: [Dab]T[Dap][Dab][Dab][dL]L[Dab][Dab]T; lactam I:2-I:11, II:4-II:C; amide I:5-II:N) | <1 | 0.0625 | 0.125 (≈ 0.0517 µM) | 0.0625 | 0.125 (≈ 0.0517 µM) | 0.5 (≈ 0.207 µM) | 0.125 (≈ 0.0517 µM) | 0.0625 | 0.0625
2 | CCCC[C@@H]1NC(=O)[C@H](CO)NC(=O)[C@H](Cc2c[nH]c3ccccc23)NC(=O)[C@H](CO)NC(=O)[C@@H](CCN)NC(=O)[C@H](CCC(=O)N[C@@H](CCN)C(=O)N[C@H](C(=O)N[C@@H](CN)C(=O)N[C@H]2CCNC(=O)[C@H]([C@@H](C)O)NC(=O)[C@H](CCN)NC(=O)[C@H](CCN)NC(=O)[C@H](CC(C)C)NC(=O)[C@@H](CC(C)C)NC(=O)[C@H](CCN)NC2=O)[C@@H](C)O)NC(=O)[C@H](CCN)NC(=O)[C@H](Cc2ccc(O)cc2)NC(=O)[C@@H](NC(=O)[C@@H](NC(C)=O)C(C)C)CCNC(=O)C[C@@H](C(=O)N[C@@H](CO)C(N)=O)NC1=O [Ex. 325] (I: Ac-V[Dab]Y[Dab]E[dDab]SWS[Nle]DS-NH2 / II: [Dab]T[Dap][Dab][Dab][dL]L[Dab][Dab]T; lactam I:2-I:11, II:4-II:C; amide I:5-II:N) | <1 | 0.0625 | 0.0625 (≈ 0.026 µM) | 0.0625 | 0.125 (≈ 0.052 µM) | 0.5 (≈ 0.208 µM) | 0.125 (≈ 0.052 µM) | 0.0625 | 0.125
3 | CCCC[C@@H]1NC(=O)[C@H](CO)NC(=O)[C@H](Cc2c[nH]c3ccccc23)NC(=O)[C@H](CO)NC(=O)[C@@H](CCN)NC(=O)[C@H](CCC(=O)N[C@@H](CCN)C(=O)N[C@H](C(=O)N[C@@H](CN)C(=O)N[C@H]2CCNC(=O)[C@H]([C@@H](C)O)NC(=O)[C@H](CCN)NC(=O)[C@H](CCN)NC(=O)[C@H](CC(C)C)NC(=O)[C@@H](CC(C)C)NC(=O)[C@H](CCN)NC2=O)[C@@H](C)O)NC(=O)[C@H](CCN)NC(=O)[C@H](Cc2ccc(O)cc2)NC(=O)[C@@H](NC(=O)[C@@H](NC(C)=O)C(C)C)CCNC(=O)CC[C@@H](C(=O)N[C@@H](CO)C(N)=O)NC1=O [Ex. 326] (I: Ac-V[Dab]Y[Dab]E[dDab]SWS[Nle]ES-NH2 / II: [Dab]T[Dap][Dab][Dab][dL]L[Dab][Dab]T; lactam I:2-I:11, II:4-II:C; amide I:5-II:N) | <1 | 0.0625 | 0.0625 (≈ 0.0258 µM) | 0.0625 | 0.125 (≈ 0.0517 µM) | 0.5 (≈ 0.207 µM) | 0.125 (≈ 0.0517 µM) | 0.0625 | 0.0625
4 | CC(=O)N[C@H](C(=O)N[C@H]1CCNC(=O)CC[C@@H](C(=O)N[C@@H](CO)C(N)=O)NC(=O)[C@H](CC(C)C)NC(=O)[C@H](CO)NC(=O)[C@H](Cc2c[nH]c3ccccc23)NC(=O)[C@H](CO)NC(=O)[C@@H](CCN)NC(=O)[C@H](CCC(=O)N[C@@H](CCN)C(=O)N[C@H](C(=O)N[C@@H](CN)C(=O)N[C@H]2CCNC(=O)[C@H]([C@@H](C)O)NC(=O)[C@H](CCN)NC(=O)[C@H](CCN)NC(=O)[C@H](CC(C)C)NC(=O)[C@@H](CC(C)C)NC(=O)[C@H](CCN)NC2=O)[C@@H](C)O)NC(=O)[C@H](CCN)NC(=O)[C@H](Cc2ccc(O)cc2)NC1=O)C(C)C [Ex. 327] (I: Ac-V[Dab]Y[Dab]E[dDab]SWSLES-NH2 / II: [Dab]T[Dap][Dab][Dab][dL]L[Dab][Dab]T; lactam I:2-I:11, II:4-II:C; amide I:5-II:N) | <1 | 0.0625 | 0.125 (≈ 0.0517 µM) | 0.0625 | 0.125 (≈ 0.0517 µM) | 0.5 (≈ 0.207 µM) | 0.25 (≈ 0.103 µM) | 0.0625 | 0.125
5 | CC(=O)N[C@H](C(=O)N[C@H]1CSSC[C@@H](C(=O)N[C@@H](CO)C(N)=O)NC(=O)[C@H](C(C)C)NC(=O)[C@H](CO)NC(=O)[C@H](Cc2c[nH]c3ccccc23)NC(=O)[C@H](CO)NC(=O)[C@@H](CCN)NC(=O)[C@H](CCC(=O)N[C@@H](CCN)C(=O)N[C@H](C(=O)N[C@@H](CN)C(=O)N[C@H]2CCNC(=O)[C@H]([C@@H](C)O)NC(=O)[C@H](CCN)NC(=O)[C@H](CCN)NC(=O)[C@H](CC(C)C)NC(=O)[C@@H](CC(C)C)NC(=O)[C@H](CCN)NC2=O)[C@@H](C)O)NC(=O)[C@H](Cc2c[nH]cn2)NC(=O)[C@H](Cc2ccc(O)cc2)NC1=O)C(C)C [Ex. 328] (I: Ac-VCYHE[dDab]SWSVCS-NH2 / II: [Dab]T[Dap][Dab][Dab][dL]L[Dab][Dab]T; disulfide I:2-I:11; amide I:5-II:N; lactam II:4-II:C) | 1 | 0.01562 | 0.0625 (≈ 0.0257 µM) | 0.01562 | 0.0625 (≈ 0.0257 µM) | 0.25 (≈ 0.103 µM) | 0.125 (≈ 0.0513 µM) | 0.125 | 0.0625
6 | CC(=O)N[C@H](C(=O)N[C@H]1CSSC[C@@H](C(=O)N[C@@H](CO)C(N)=O)NC(=O)[C@H](C(C)C)NC(=O)[C@H](Cc2c[nH]cn2)NC(=O)[C@H](Cc2c[nH]c3ccccc23)NC(=O)[C@H](CO)NC(=O)[C@@H](CCN)NC(=O)[C@H](CCC(=O)N[C@@H](CCN)C(=O)N[C@H](C(=O)N[C@@H](CN)C(=O)N[C@H]2CCNC(=O)[C@H]([C@@H](C)O)NC(=O)[C@H](CCN)NC(=O)[C@H](CCN)NC(=O)[C@H](CC(C)C)NC(=O)[C@@H](CC(C)C)NC(=O)[C@H](CCN)NC2=O)[C@@H](C)O)NC(=O)[C@H](CCN)NC(=O)[C@H](Cc2ccc(O)cc2)NC1=O)C(C)C [Ex. 329] (I: Ac-VCY[Dab]E[dDab]SWHVCS-NH2 / II: [Dab]T[Dap][Dab][Dab][dL]L[Dab][Dab]T; disulfide I:2-I:11; amide I:5-II:N; lactam II:4-II:C) | <1 | 0.0625 | 0.125 (≈ 0.051 µM) | 0.0625 | 0.125 (≈ 0.051 µM) | 0.25 (≈ 0.102 µM) | 0.125 (≈ 0.051 µM) | 0.125 | 0.125
7 | CC(=O)N[C@@H](CC(C)C)C(=O)N[C@H]1CSSC[C@@H](C(=O)N[C@@H](CO)C(N)=O)NC(=O)[C@H](C(C)C)NC(=O)[C@H](CCN)NC(=O)[C@H](Cc2c[nH]c3ccccc23)NC(=O)[C@H](CO)NC(=O)[C@@H](CCN)NC(=O)[C@H](CCC(=O)N[C@@H](CCN)C(=O)N[C@H](C(=O)N[C@@H](CN)C(=O)N[C@H]2CCNC(=O)[C@H]([C@@H](C)O)NC(=O)[C@H](CCN)NC(=O)[C@H](CCN)NC(=O)[C@H](CC(C)C)NC(=O)[C@@H](CC(C)C)NC(=O)[C@H](CCN)NC2=O)[C@@H](C)O)NC(=O)[C@H](CCN)NC(=O)[C@H](Cc2ccc(O)cc2)NC1=O [Ex. 330] (I: Ac-LCY[Dab]E[dDab]SW[Dab]VCS-NH2 / II: [Dab]T[Dap][Dab][Dab][dL]L[Dab][Dab]T; disulfide I:2-I:11; amide I:5-II:N; lactam II:4-II:C) | 1 | 0.0625 | 0.125 (≈ 0.0515 µM) | 0.25 | 1 (≈ 0.412 µM) | 2 (≈ 0.824 µM) | 0.25 (≈ 0.103 µM) | 0.0625 | 0.25
